Reference: patent publication US9060979B2, “Antidepressant” (OTSUKA PHARMACEUTICAL FACTORY, INC., priority 2006, dated 2015)

System: SD rats
Assay: Defensive withdrawal test in rats under stress (time to come out of a cylinder)
Assay type: in vivo, rat
Settings: for antidepressant effect: same defensive withdrawal tests in SD rats as for L-isoleucine
Procedure: SD rats (10-week-old) were divided into two groups (10 rats in each group). One group (control group) was kept for 6 days with free access to food (standard AIN-76 diet manufactured by Nosan Corporation) and water. The other group (present invention group) was kept for 6 days with free access to food (standard AIN-76 diet containing 1% by mass of L-isoleucine) and water. Using these subject animals, depression-improving activity in rats under stress was tested according to the defensive withdrawal test method by Gutman, D. A. et al. (The Journal of Pharmacology and Experimental Therapeutics, 304 (2), 874 (2003)). That is, a rat (one from each group) was dropped, tail first, into an upright black cylinder 10 cm in diameter and 20 cm in length, and immediately covered with a lid. After 10 seconds, the cylinder was placed in an open field (100 cm long, 100 cm wide, and 45 cm high) made up of white acrylic boards, facing one corner, at a position 20 cm from the corner. […] The test was carried out under an illuminance of 200 1× in a soundproof room, and behavior of the rat was videotaped from above and observed using a monitor outside the soundproof room. Statistical processing was performed by two-sided Student's t-test.

Compound: CC(C)[C@H](N)C(=O)O [L-valine]
- antidepressant effect: same antidepressant effect as that of L-isoleucine was confirmed

Compound: CC[C@H](C)[C@H](N)C(=O)O [L-isoleucine]
- time the rat took to come out of the cylinder (SD rats, 10-week-old, 6 days free access to AIN-76 diet containing 1% by mass of the amino acid, observed 5 minutes, compared to control group): significantly shorter time to come out of the cylinder

Compound: CC(C)C[C@H](N)C(=O)O [L-leucine]
- antidepressant effect: same antidepressant effect as that of L-isoleucine was confirmed
